Data: article PMC7961048, “Hierarchized phosphotarget binding by the seven human 14-3-3 isoforms” (Nature Communications, 2021)
Read-outs that look alike come from different tables or passages of the source. Starred links: 1 amine or outer side, 2 acyl side, 3 side chain; linkers in the order of their positions; H or OH if unused. Non-standard residues stand in square brackets, D forms with d. Residues, ends and D or L forms follow the SMILES beside them. *: point of attachment. X1 = O=C(CCCC[C@@H]1SC[C@@H]2NC(=O)N[C@@H]21)NCCCOCCOCCOCCCN*; pT = C[C@@H](OP(=O)(O)O)[C@H](N)C(=O)O; Suc = O=C(CCC(=O)[*:2])[*:1]

Assays:
[1] = target: T1, 14-3-3ε (Homo sapiens, UniProt P62258); assay: biochemical; format: binding
T1 construct: Plasmids containing the cDNAs of the full-length 14-3-3 isoforms ε, γ, and ζ were received; made in house; host or cells: E. coli BL21(DE3)
T1 sequence (P62258 1-255): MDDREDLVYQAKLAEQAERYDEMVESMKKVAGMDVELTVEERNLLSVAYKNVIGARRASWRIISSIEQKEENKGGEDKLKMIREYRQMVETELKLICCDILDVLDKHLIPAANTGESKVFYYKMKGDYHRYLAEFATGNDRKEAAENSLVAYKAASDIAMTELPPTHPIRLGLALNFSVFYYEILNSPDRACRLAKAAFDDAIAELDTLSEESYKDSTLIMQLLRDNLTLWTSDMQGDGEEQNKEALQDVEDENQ

[2] = target: T2, 14-3-3γ (Homo sapiens, UniProt P61981); assay: biochemical; format: binding
T2 construct: full-length human 14-3-3 constructs with an N-terminal MBP fusion were used; made in house; host or cells: E. coli BL21(DE3)
T2 sequence (P61981 1-247): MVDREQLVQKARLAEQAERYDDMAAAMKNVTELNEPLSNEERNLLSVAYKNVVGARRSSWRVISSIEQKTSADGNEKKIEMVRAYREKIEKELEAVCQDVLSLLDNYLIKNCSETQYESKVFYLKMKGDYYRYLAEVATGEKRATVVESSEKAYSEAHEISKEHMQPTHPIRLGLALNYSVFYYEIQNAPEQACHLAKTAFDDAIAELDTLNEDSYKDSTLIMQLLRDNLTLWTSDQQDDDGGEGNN
Description: FP was measured with a PHERAstar (BMG Labtech, Offenburg, Germany) microplate reader by using 485 ± 20 and 528 ± 20 nm band-pass filters (for excitation and emission, respectively). In direct FP measurements, a dilution series of the 14-3-3 protein was prepared in 96-well plates (96-well skirted PCR plate, 4ti-0740, 4titude, Wotton, UK) in a 20 mM HEPES pH 7.5 buffer containing 150 mM NaCl, 0.5 mM TCEP, 0.01% Tween 20, 50 nM fluorescently labeled fpB6 peptide, and 100 μM FSC, if indicated. The volume of the dilution series was 40 μl, which was later divided into three technical replicates of 10 μl upon transferring to 384-well micro-plates (low binding microplate, 384 well, E18063G5, Greiner Bio-One, Kremsmünster, Austria). In total, polarization of the probe was measured at eight different protein concentrations (whereas one contained no protein and corresponded to the free peptide). In competitive FP measurements, the same buffer was supplemented with the protein to achieve a complex formation of 60–80%, based on the direct titration. Then, this mixture was used for creating a dilution series of the unlabeled competitor (i.e., the studied peptides) and the measurement was carried out identically as in the direct experiment.
All FP experiments were done in triplicates. Analysis of FP experiments were carried out using ProFit, an in-house developed, Python-based fitting program. […]

CC(C)[C@H](NC(=O)[C@H](C)NC(=O)[C@@H](NC(=O)[C@H](CCC(=O)O)NC(=O)[C@H](CCCNC(=N)N)NC(=O)[C@H](CCCNC(=N)N)NC(=O)[C@@H](NC(=O)[C@@H]1CCCN1C(=O)[C@H](CCCCN)NC(=O)[C@H](CO)NC(=O)CCC(=O)NCCCOCCOCCOCCCNC(=O)CCCC[C@@H]1SC[C@@H]2NC(=O)N[C@@H]21)[C@@H](C)O)[C@@H](C)OP(=O)(O)O)C(=O)O [pHPV35E6E-1A] ({X1-Suc}-SKPTRRE[pT]AV-OH)
Kd [1]: 31.9 µM

CC(C)C[C@H](NC(=O)[C@H](CCC(N)=O)NC(=O)[C@@H](NC(=O)[C@H](CCC(=O)O)NC(=O)[C@H](CCCNC(=N)N)NC(=O)[C@H](CCCNC(=N)N)NC(=O)[C@@H](NC(=O)[C@H](CCCNC(=N)N)NC(=O)[C@H](CO)NC(=O)[C@H](CO)NC(=O)CCC(=O)NCCCOCCOCCOCCCNC(=O)CCCC[C@@H]1SC[C@@H]2NC(=O)N[C@@H]21)[C@@H](C)O)[C@@H](C)OP(=O)(O)O)C(=O)O [pHPV16E6]
Kd [1]: > 300 µM | Binding affinities (KD) of various 14-3-3-binding motifs, 14-3-3ε ([1]; Figure 4 panel a, unit from the colour scale line, motifs measured in this work): √

CC(C)[C@H](NC(=O)[C@H](CCC(=O)O)NC(=O)[C@@H](NC(=O)[C@H](CCC(=O)O)NC(=O)[C@H](CCCNC(=N)N)NC(=O)[C@H](CCCNC(=N)N)NC(=O)[C@@H](NC(=O)[C@@H]1CCCN1C(=O)[C@H](CCCCN)NC(=O)[C@H](CO)NC(=O)CCC(=O)NCCCOCCOCCOCCCNC(=O)CCCC[C@@H]1SC[C@@H]2NC(=O)N[C@@H]21)[C@@H](C)O)[C@@H](C)OP(=O)(O)O)C(=O)O [pHPV35E6] ({X1-Suc}-SKPTRRE[pT]EV-OH)
Binding affinities (KD) of various 14-3-3-binding motifs, 14-3-3ε [1]: √ | Kd [1]: > 300 µM

CC(C)C[C@H](NC(=O)[C@H](C)NC(=O)[C@@H](NC(=O)[C@H](CCC(=O)O)NC(=O)[C@H](CCCNC(=N)N)NC(=O)[C@H](CCCNC(=N)N)NC(=O)[C@H](CCCNC(=N)N)NC(=O)[C@H](CO)NC(=O)[C@H](CCCNC(=N)N)NC(=O)[C@H](CO)NC(=O)CCC(=O)NCCCOCCOCCOCCCNC(=O)CCCC[C@@H]1SC[C@@H]2NC(=O)N[C@@H]21)[C@@H](C)OP(=O)(O)O)C(=O)O [pHPV33E6] ({X1-Suc}-SRSRRRE[pT]AL-OH)
Kd [1]: 10.3 µM | Kd [2]: 2.2 ± 0.3 µM
